Laboratory results from paper PMC11481179, “Development and Application of Reversible and Irreversible Covalent Probes for Human and Mouse Cathepsin‐K Activity Detection, Revealing Nuclear Activity” (Advanced Science, 2024).

What was measured:
CTSB = CTSB (Homo sapiens, UniProt P07858); experiment: Recombinant cathepsin inhibition, residual activity labeled by pan cathepsin probe GB123, in-gel fluorescence; format: biochemical; details: even at 10 µM
Description: Figure 1 In vitro evaluation of CTSK targeted compounds. a) Labeling of recombinant cathepsins by ABPs. Recombinant cathepsins were treated with increasing concentrations of ABPs for 1 h. Samples were separated by SDS‐PAGE and scanned for fluorescence by a Typhoon scanner at 635/670 nm. All probes show dose‐dependent binding to the CTSK, and have lower affinity to CTSS except GD36, b) CTSK [0.5–280 ng] was labeled with the indicated ABPs [5 µM]. Incubations were performed for 1 h at 37 °C, at pH 5.5. Samples were analyzed as described in (a). c) Recombinant cathepsins B, K, L, and S [0.5 µM] were first treated with the indicated concentrations of the inhibitor GD30 or vehicle for 1 h followed by incubation with a pan cathepsin probe GB123 [1 µM] for 1 h. Samples were analyzed as described in (a). d) Quantitative analysis of CTSK inhibition by GD30 presented in (d), data represent mean values ± standard error, n = 3. e) IC50 plot of GD30 inhibition of CTSK activity.
To further evaluate the probes for their selectivity, we applied a potent and selective covalent inhibitor, Compound 6 (GD30); the inhibitor was generated as a precursor of GD32 and GD36. GD30 was evaluated for its ability to block cathepsin activities by preincubating it with each recombinant enzyme before labeling it by a pan cathepsin ABP, GB123. […]
Recombinant cathepsin inhibition: Recombinant human CTSL, CTSB, CTSK, and CTSS (0.5 µM) were pretreated with different concentrations of inhibitors (GD30, ODN) for 1 h in reaction buffer (50 mM acetate, 4 mM DTT and 5 mM MgCl2, pH 5.5) at 37 °C. GB123, 1 µM, was added, and incubated with samples for 1 h at 37 °C. The reaction was stopped by the addition of sample buffer 4x (40% glycerol, 0.2 M Tris/HCl pH 6.8, 20% beta-mercaptoethanol, 12% SDS, and 0.4 mg/ml bromophenol blue). Samples were then boiled at 95 °C for 2 mins, separated on a 12.5% SDS gel, and scanned for fluorescence by a Typhoon scanner FLA 9500 at excitation/emission wavelengths of 635/670 nm.
Recombinant cathepsin labeling: Recombinant human CTSL, CTSB, CTSK, and CTSS (0.5 µM) were pretreated with different concentrations of probes (GD32, GD36, GD37, or GD42)

CTSK in U2-OS cells = target: T1, CTSK in U2-OS cells (Homo sapiens, UniProt P43235); experiment: Colocalization of ABP with anti-CTSK antibody, confocal microscopy; format: cell-based; details: fixed U2-OS cells
T1 construct: ability to label endogenous CTSK activity in intact cells; endogenous in cells; host or cells: U-2 OS
T1 sequence (P43235 115-329): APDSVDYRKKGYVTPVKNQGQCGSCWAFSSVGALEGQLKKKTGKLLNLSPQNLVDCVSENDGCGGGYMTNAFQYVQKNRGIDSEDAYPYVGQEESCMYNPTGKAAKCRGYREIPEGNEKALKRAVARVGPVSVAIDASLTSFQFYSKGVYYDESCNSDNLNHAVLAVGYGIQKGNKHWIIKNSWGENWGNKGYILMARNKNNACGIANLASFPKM
Description: The probes were then evaluated for their ability to detect active CTSK by fluorescent microscopy. ABPs were incubated with intact U‐2 OS cells, after preincubation with vehicle, a pan cathepsin inhibitor (GB111‐NH2 ),^[ [47] ^] or our selective CTSK inhibitor GD30. Cells were then fixed and imaged by confocal fluorescent microscopy, (Figure 3a). The irreversible GD32 detected active CTSK and was inhibited by both inhibitors, indicating probe specificity. […] However, when live cell imaging was performed without fixation, active CTSK was detected by GD42 although barely, reflecting the probe affinity together with the low level of active CTSK in this cell line (Figure 3b). In order to determine the specificity of GD32’s fluorescence signaling, U2‐OS cells were treated with the probe. […] Additionally, the increased extent of the antibody signal may be attributed to its interaction with the pro‐CTSK, or CTSK that is bound to an endogenous inhibitor, which should not be detected by GD32 since they are not active. Figure 3 CTSK activity detected in intact cells. a) Cultures of U2‐OS cells were grown in 8‐well chambers. […] Red, probe fluorescence, blue, DAPI. page 14: Evaluation of the permeability of GD30, and ODN to intact cells, competition assay: MG63, U87-MG, A549, and U-2 OS cells (5x10^5 cells/well) were seeded in a six-well plate one day before treatment. […]

| SMILES | inhibition of recombinant cathepsin (CTSB) | overlap coefficiency of probe signal (Cy5) with CTSK antibody (Cy3) (CTSK in U2-OS cells) |
| --- | --- | --- |
| C#CCNC(=O)[C@H](CC(C)C)N[C@@H](c1ccc(-c2ccc(S(=O)(=O)CCNC(=O)OC(C)(C)C)cc2)cc1)C(F)(F)F [GD30] | not inhibiting | – |
| C#CCNC(=O)[C@H](CC(C)C)N[C@@H](c1ccc(-c2ccc(S(=O)(=O)CCNC(=O)CCCCC[N+]3=C(/C=C/C=C/C=C4/N(C)c5ccc(S(=O)(=O)O)cc5C4(C)C)C(C)(C)c4cc(S(=O)(=O)O)ccc43)cc2)cc1)C(F)(F)F [GD32] | – | 0.892 |
